This is an account of results in PubChem BioAssay AID602458 (NMMLSC, 2012).

In brackets after ≈: the same amount, converted by molar mass. Activity calls are given as the source filed them.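 The calls were made as follows: active = compounds whose saturated solubility in pH 7.4 saline buffer exceeds 10 µg/mL; inactive = the rest.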

The subject of the data set is 1xPBS pH 7.4 kinetic solubility, UV absorbance. As to the kind of experiment: kinetic aqueous solubility of hits, late-stage follow-up, ADME assay for GPR30 and estrogen receptor ligands, biophysical, 1xPBS, pH 7.4, UV absorbance (AID 602458). Particulars: stronger effect = higher value.

Regarding `CC(=O)c1ccc2c(c1)[C@@H]1C=CC[C@@H]1[C@H](c1cc3c(cc1Br)OCO3)N2`, the solubility is 0.14 µg/mL (inactive) (≈ 0.34 µM).

Take `COc1cc([N+](=O)[O-])cc2c1NC(C1CC=CCC1)C1CC=CC21` (configuration not stated): the solubility is 0.28 µg/mL (inactive) (≈ 0.858 µM).

What is called solubility is how much of the substance goes into solution per volume.
